In brackets after ≈: the same amount, converted by molar mass. Several values for one entry are separate records, joined by “and”; a condition that tells them apart may be missing. Equal entries are not always repeated.
Experiments:
[1] = buffer, pH 7.4
physchem [2] = test: physchem
physchem [3] = test: physchem; remark: listed apart in the source
in vitro [4] = conditions: human, plasma
in vitro [5] = conditions: human
physchem [6] = test: physchem; remark: listed apart in the source
in vitro [7] = conditions: SD, HW or BN, rat, plasma
in vitro [8] = conditions: Beagle, dog, plasma
in vitro [9] = conditions: hepatocytes
in vitro [10] = conditions: human, hepatocytes
physchem [11] = conditions: pH 7.4 buffer
physchem [12] = conditions: octan-1-ol/water
in vitro [13] = conditions: mouse, plasma
physchem [14] = test: physchem; remark: listed apart in the source
in vitro [15] = conditions: Dunkin Hartley, guinea pig, plasma

CCOC(=O)C1(c2ccccc2)CCN(C)CC1 [MEPERIDINE]
LogD7.4 [1]: 1.4

COc1cc(N)c(Cl)cc1C(=O)NC1CCN(CCCOc2ccc(F)cc2)CC1OC (centres undefined) [CISAPRIDE]
LogD7.4 [1]: 3.56

O=C(O)c1cc(=O)c2c(OCC(O)COc3cccc4oc(C(=O)O)cc(=O)c34)cccc2o1 [CROMOLYN]
pKa (physchem [2]): < 2
pKa (physchem [3]): < 2

O=C(O)c1cc(O)cc(Cl)c1
pKa (physchem [2]): 3.81
pKa (physchem [3]): 8.57

CC(CN(C)C)CN1c2ccccc2CCc2ccccc21 (centres undefined) [TRIMIPRAMINE]
LogD7.4 [1]: 2.95
fraction unbound at 5 h (in vitro [4]; PPB): 0.069

CS(=O)(=O)c1ccc(-c2cc(C(F)(F)F)ccc2OCC(=O)O)cc1
LogD7.4 [1]: -0.87
microsomal CLint (in vitro [5]; liver microsomes): < 3 µL/min/mg

CCCc1c2nc(C(=O)O)cc(NC)c2cc2c(=O)cc(C(=O)O)oc12 [MINOCROMIL]
pKa (physchem [6]): 8.8
pKa (physchem [2]): < 2
pKa (physchem [3]): < 2

CCS(=O)(=O)c1ccc(-c2cc(Cl)ccc2OCC(=O)O)c(C)c1
LogD7.4 [1]: -0.65

NCc1ccccc1CC(=O)N[C@@H]1C(=O)N2C(C(=O)O)=C(CSc3nnnn3CC(=O)O)CS[C@H]12 [CEFORANIDE]
pKa (physchem [6]): 8.88
pKa (physchem [2]): 2.01
pKa (physchem [3]): 3.63

O=C(NO)c1ccccc1O [SALICYLHYDROXAMIC ACID]
microsomal CLint (in vitro [5]; liver microsomes): < 3 µL/min/mg
pKa (physchem [2]): 7.5
pKa (physchem [3]): 9.9

CCS(=O)(=O)c1ccc(-c2cc(Cl)ccc2OCC(=O)O)c(F)c1
LogD7.4 [1]: -0.92
fraction unbound at 5 h (in vitro [4]; PPB): 0.0488
fraction unbound at 5 h (in vitro [7]): 0.0568
fraction unbound at 5 h (in vitro [8]): 0.0084
microsomal CLint (in vitro [5]; microsomes): < 3 µL/min/mg
hepatocyte CLint (in vitro [9]): 4.24 µL/min/1e6 cells
hepatocyte CLint (in vitro [10]): < 3 µL/min/1e6 cells
pKa (physchem [2]): 3

Cc1cc(N(C)S(C)(=O)=O)ccc1-c1cc(C(F)(F)F)ccc1OCC(=O)O
LogD7.4 [1]: -0.59
microsomal CLint (in vitro [5]; liver microsomes): < 3 µL/min/mg

NCCc1ccc(O)c(O)c1F
pKa (physchem [6]): 8
pKa (physchem [2]): 7.8
pKa (physchem [3]): 10.3

CC1(C)NC(=O)N(c2ccc([N+](=O)[O-])c(C(F)(F)F)c2)C1=O [NILUTAMIDE]
LogD7.4 [1]: 1.74
solubility thermodynamic (physchem [11]): 234 µM (≈ 74.4 µg/mL)

Clc1ccc2c(c1)CCc1cccnc1C2=C1CCNCC1 [DESLORATADINE]
pKa (physchem [6]): 10
logD (physchem [12]; pH 7.4): 1.48
fraction unbound at 5 h (in vitro [7]): 0.145
fraction unbound at 5 h (in vitro [13]): 0.183
hepatocyte CLint (in vitro [9]): 26.9 µL/min/1e6 cells
pKa (physchem [14]): 4.57

CN1CCN(C2=Nc3cc(Cl)ccc3Nc3ccccc32)CC1 [CLOZAPINE]
logD (physchem [12]; pH 7.4): 3.08
fraction unbound at 5 h (in vitro [4]): 0.0521
fraction unbound at 5 h (in vitro [7]): 0.0647
fraction unbound at 5 h (in vitro [8]): 0.0736
fraction unbound at 5 h (in vitro [15]): 0.0872
pKa (physchem [14]): 3.99

O=C(O)[C@H](Cc1ccccc1)N1CCC(CN2CCC(Oc3ccc(Cl)c(Cl)c3)CC2)CC1
pKa (physchem [6]): 9.25
solubility thermodynamic (physchem [11]): 13.5 µM (≈ 6.63 µg/mL)
fraction unbound at 5 h (in vitro [7]): 0.183
fraction unbound at 5 h (in vitro [8]): 0.11
fraction unbound at 5 h (in vitro [13]): 0.154
fraction unbound at 5 h (in vitro [15]): 0.58
microsomal CLint (in vitro [5]; liver microsomes): < 3 µL/min/mg
pKa (physchem [14]): 7.75
pKa (physchem [2]): 3.1

Clc1ccc(COC(Cn2ccnc2)c2ccc(Cl)cc2Cl)cc1 (centres undefined) [ECONAZOLE]
LogD7.4 [1]: 2.54

CC1(C)S[C@@H]2[C@H](NC(=O)[C@H](N)c3ccc(O)cc3)C(=O)N2[C@H]1C(=O)O [AMOXICILLIN]
pKa (physchem [6]): 7.52
pKa (physchem [2]): 4.03
pKa (physchem [3]): 9.77

CN(c1ccc(-c2cc(F)ccc2OCC(=O)O)c(Cl)c1)S(C)(=O)=O
LogD7.4 [1]: -1.17

CO[C@@]1(NC(=O)CSCC#N)C(=O)N2C(C(=O)O)=C(CSc3nnnn3C)CS[C@@H]21 [CEFMETAZOLE]
fraction unbound at 5 h (in vitro [4]; PPB): 0.194
pKa (physchem [2]): 3.37
pKa (physchem [3]): 10.2

O=C(O)c1cccc(CN2CCC(CN3CCC(Oc4ccc(Cl)c(Cl)c4)CC3)CC2)c1
pKa (physchem [6]): 9.6
microsomal CLint (in vitro [5]; microsomes): < 3 µL/min/mg
pKa (physchem [14]): 7.7
pKa (physchem [2]): 3.5

CN1Cc2c(N)cccc2C(c2ccccc2)C1 (centres undefined) [NOMIFENSINE]
LogD7.4 [1]: 2.11
logD (physchem [12]; pH 7.4, LogD7.4): 2.08

O=c1[nH]c2c(O)ccc([C@@H](O)CNCCc3cccc(CN4CCCC4)c3)c2s1
LogD7.4 [1]: -0.28

Cc1c(Sc2ccc(Cl)cc2)c2c(NS(C)(=O)=O)cccc2n1CC(=O)O
logD (physchem [12]; pH 7.4, LogD7.4): 0.21
fraction unbound at 5 h (in vitro [4]; PPB): 0.0104
fraction unbound at 5 h (in vitro [7]): 0.0031
hepatocyte CLint (in vitro [9]): 5 µL/min/1e6 cells
hepatocyte CLint (in vitro [10]): 4.76 µL/min/1e6 cells
pKa (physchem [2]): 2.9
pKa (physchem [3]): 10.2

CN1CCN(CCCN2c3ccccc3Sc3ccc(Cl)cc32)CC1 [PROCHLORPERAZINE]
LogD7.4 [1]: 3.92

N#Cc1ccc(C[C@@H](C(=O)O)N2CCC(CN3CCC(Oc4ccc(Cl)c(Cl)c4)CC3)CC2)cc1
pKa (physchem [6]): 8.9
solubility thermodynamic (physchem [11]): 53.7 µM (≈ 27.7 µg/mL)
fraction unbound at 5 h (in vitro [4]; PPB): 0.0521
fraction unbound at 5 h (in vitro [7]): 0.0968
fraction unbound at 5 h (in vitro [8]): 0.166
fraction unbound at 5 h (in vitro [13]): 0.197
pKa (physchem [14]): 7

O=c1c2ccccc2[se]n1-c1ccccc1 [EBSELEN]
LogD7.4 [1]: 3.31

O=C(O)C(c1ccccc1)N1CCC(CN2CCC(Oc3ccc(Cl)c(Cl)c3)CC2)CC1 (centres undefined)
pKa (physchem [6]): 9.6
logD (physchem [12]; pH 7.4, LogD7.4): 2.17
microsomal CLint (in vitro [5]; microsomes): < 3 µL/min/mg
pKa (physchem [14]): 7.7
pKa (physchem [2]): 3

CCS(=O)(=O)c1cccc(-c2cc(C(F)(F)F)ccc2OCC(=O)O)c1
LogD7.4 [1]: -0.66

CCCc1c2nc(C(=O)O)cc(Cl)c2cc2c(=O)cc(C(=O)O)oc12
pKa (physchem [3]): 3.7

CC/C(=C(/c1ccc(O)cc1)c1ccc(/C=C/C(=O)O)cc1)c1ccccc1
solubility thermodynamic (physchem [11]): 1 µM (≈ 0.37 µg/mL)
microsomal CLint (in vitro [5]; liver microsomes): 33.9 µL/min/mg
hepatocyte CLint (in vitro [9]): 69.2 µL/min/1e6 cells
hepatocyte CLint (in vitro [10]): 55 µL/min/1e6 cells
pKa (physchem [3]): 9.55

O=C(O)CCCCCCCC(=O)O [AZELAIC ACID]
pKa (physchem [2]): 3.49
pKa (physchem [3]): 5.87

CCS(=O)(=O)c1ccc(-c2cc(Cl)ccc2OCC(=O)O)cc1
LogD7.4 [1]: -0.78
fraction unbound at 5 h (in vitro [4]; PPB): 0.0274
microsomal CLint (in vitro [5]; liver microsomes): < 3 µL/min/mg

O=C(O)c1cc(=O)c2ccc(O)cc2o1
pKa (physchem [2]): < 2
pKa (physchem [3]): 7.3

CC(C)(C)NC[C@H](O)COc1nsnc1N1CCOCC1 [TIMOLOL]
LogD7.4 [1]: -0.35 and -0.22
fraction unbound at 5 h (in vitro [4]; PPB): 0.597
hepatocyte CLint (in vitro [9]): > 150 µL/min/1e6 cells
hepatocyte CLint (in vitro [10]): 4.57 µL/min/1e6 cells

NC(=O)N1c2ccccc2CC(=O)c2ccccc21 [OXCARBAZEPINE]
LogD7.4 [1]: 1.28

CS(=O)(=O)c1ccc(-c2cc(C(F)(F)F)ccc2OCC(=O)O)c(Cl)c1
LogD7.4 [1]: -0.52
fraction unbound at 5 h (in vitro [4]; PPB): 0.0418
fraction unbound at 5 h (in vitro [7]): 0.0499

CC(CCc1ccccc1)NCC(O)c1ccc(O)c(C(N)=O)c1 (centres undefined) [LABETALOL]
LogD7.4 [1]: 1.06
fraction unbound at 5 h (in vitro [4]; PPB): 0.376

CS(=O)(=O)c1ccc(-c2cc(Cl)ccc2OCC(=O)O)c(Cl)c1
LogD7.4 [1]: -0.75
fraction unbound at 5 h (in vitro [4]; PPB): 0.0251
fraction unbound at 5 h (in vitro [7]): 0.035

CC(C)/N=c1\cc2n(-c3ccc(Cl)cc3)c3ccccc3nc-2cc1Nc1ccc(Cl)cc1 [CLOFAZIMINE]
LogD7.4 [1]: 3.17
pKa (physchem [6]): 8.8
solubility thermodynamic (physchem [11]): 0.7 µM (≈ 0.331 µg/mL)
fraction unbound at 5 h (in vitro [7]): 0.0037

CN1CCC[C@@H]1CCO[C@](C)(c1ccccc1)c1ccc(Cl)cc1 [CLEMASTINE]
LogD7.4 [1]: 3.48
logD (physchem [12]; pH 7.4, LogD7.4): 3.04

CN1CCN(CCCN2c3ccccc3Sc3ccc(C(F)(F)F)cc32)CC1 [TRIFLUOPERAZINE]
LogD7.4 [1]: 4.31
fraction unbound at 5 h (in vitro [4]; PPB): 0.0081
fraction unbound at 5 h (in vitro [7]): 0.007

CCCc1c2oc(C(=O)O)cc(=O)c2cc2c(=O)cc(C(=O)O)n(CC)c12 [NEDOCROMIL]
pKa (physchem [2]): < 2
pKa (physchem [3]): < 2

Cc1c(S(=O)(=O)c2ccc(Cl)cc2)c2c(NS(C)(=O)=O)cccc2n1CC(=O)O
logD (physchem [12]; pH 7.4, LogD7.4): -0.83
pKa (physchem [2]): 2.8
pKa (physchem [3]): 9.8

CCN(CC)c1ccc(-c2nn3c(-c4n[nH]c5c4CCC5)nnc3s2)cc1
LogD7.4 [1]: 3.37
